Source: ChEMBL document CHEMBL5149980, “The Alpha Keto Amide Moiety as a Privileged Motif in Medicinal Chemistry: Current Insights and Emerging Opportunities” (J Med Chem, 2021)
In brackets after ≈: the same amount, converted by molar mass.

Columns and labels:
[1] = target: T1, Phospholipase A2, membrane associated (Homo sapiens, UniProt P14555); experiment: Inhibition of human group IIA phospholipase A2 incubated for 30 mins by automatic plate reader analysis
T1 sequence (P14555 whole entry): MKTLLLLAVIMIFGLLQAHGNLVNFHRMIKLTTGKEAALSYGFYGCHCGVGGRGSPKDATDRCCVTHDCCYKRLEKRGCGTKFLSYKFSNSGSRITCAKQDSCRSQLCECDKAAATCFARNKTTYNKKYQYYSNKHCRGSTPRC

Staphylococcus aureus [2] = experiment: Antibacterial activity against Staphylococcus aureus assessed as bacterial growth inhibition incubated for 24 hrs by microplate reader analysis; assay type: functional
Cathepsin B = Cathepsin B (Homo sapiens, UniProt P07858); experiment: Inhibition of human Cathepsin B assessed as inhibition constant
Cathepsin K = Cathepsin K (Homo sapiens, UniProt P43235); experiment: Inhibition of human Cathepsin K assessed as inhibition constant
[3] = target: Calpain-1 catalytic subunit (Homo sapiens, UniProt P07384); experiment: Inhibition of human Calpain I assessed as dissociation constant using Suc-Leu-Tyr-AMC as substrate preincubated for 15 mins followed by compound addition and measured after 40 mins by […]
Procathepsin L = Procathepsin L (Homo sapiens, UniProt P07711); experiment: Inhibition of human Cathepsin L assessed as inhibition constant
Cathepsin S = Cathepsin S (Homo sapiens, UniProt P25774); experiment: Inhibition of human Cathepsin S assessed as inhibition constant
[4] = target: Dipeptidyl peptidase 1 (Homo sapiens) (UniProt P53634); experiment: Inhibition of human Cathepsin C assessed as inhibition constant at 10 uM relative to control
Homo sapiens = species: Homo sapiens; experiment: Inhibition of human Cathepsin H assessed as inhibition constant at 10 uM relative to control
[5] = target: Group 10 secretory phospholipase A2 (Mus musculus, UniProt Q9QXX3); experiment: Inhibition of mouse group X phospholipase A2 incubated for 10 to 20 mins cells by radiometric assay
[6] = target: Phospholipase A2, membrane associated (Mus musculus, UniProt P31482); experiment: Inhibition of mouse group IIA phospholipase A2 incubated for 10 to 20 mins cells by radiometric assay
[7] = target: T1, Phospholipase A2, membrane associated; experiment: Inhibition of human group IIA phospholipase A2 preincubated with compound for 10 mins followed by enzyme addition and measured after 30 mins by PC/DOC assay
[8] = target: T1, Phospholipase A2, membrane associated; experiment: Inhibition of human group IIA phospholipase A2 incubated for 10 to 20 mins cells by radiometric assay
[9] = target: Group IIC secretory phospholipase A2 (Mus musculus, UniProt P48076); experiment: Inhibition of mouse group IIC phospholipase A2 incubated for 10 to 20 mins cells by radiometric assay
Phospholipase A2 group V [10] = target: Phospholipase A2 group V (Homo sapiens, UniProt P39877); experiment: Inhibition of human group V phospholipase A2 expressed in Escherichia coli BL21(DE3) cells incubated for 10 to 20 mins cells by radiometric assay
Phospholipase A2 group V [11] = target: Phospholipase A2 group V (Mus musculus, UniProt P97391); experiment: Inhibition of mouse group V phospholipase A2 incubated for 10 to 20 mins cells by radiometric assay
[12] = target: Group 10 secretory phospholipase A2 (Homo sapiens, UniProt O15496); experiment: Inhibition of human group X phospholipase A2 incubated for 10 to 20 mins cells by radiometric assay
Phospholipase A2 [13] = target: Phospholipase A2 (Mus musculus, UniProt Q9Z0Y2); experiment: Inhibition of mouse group IB phospholipase A2 incubated for 10 to 20 mins cells by radiometric assay
[14] = target: Group IIE secretory phospholipase A2 (Homo sapiens, UniProt Q9NZK7); experiment: Inhibition of human group IIE phospholipase A2 expressed in Escherichia coli BL21 cells incubated for 10 to 20 mins cells by radiometric assay
[15] = target: Group IIE secretory phospholipase A2 (Mus musculus, UniProt Q9QUL3); experiment: Inhibition of mouse group IIE phospholipase A2 incubated for 10 to 20 mins cells by radiometric assay
Phospholipase A2 [16] = target: Phospholipase A2 (Homo sapiens, UniProt P04054); experiment: Inhibition of human group IB phospholipase A2 expressed in Escherichia coli BL21 cells incubated for 10 to 20 mins cells by radiometric assay
Bacillus cereus = experiment: Antibacterial activity against Bacillus cereus assessed as bacterial growth inhibition by microdilution analysis; assay type: functional
Pseudomonas putida = experiment: Antibacterial activity against Pseudomonas putida assessed as bacterial growth inhibition by microdilution analysis; assay type: functional
Escherichia coli [17] = experiment: Antibacterial activity against Escherichia coli assessed as bacterial growth inhibition by microdilution analysis; assay type: functional
Staphylococcus aureus [18] = experiment: Antibacterial activity against Staphylococcus aureus assessed as bacterial growth inhibition by microdilution analysis; assay type: functional
Staphylococcus aureus [19] = experiment: Antibacterial activity against Staphylococcus aureus SA38 infected in MRC5 assessed as bacterial growth inhibition by alamar blue assay; assay type: functional
[20] = target: Translocator protein (Rattus norvegicus) (UniProt P16257); experiment: Activation of TSPO in rat C6 glioma cells assessed as increase in pregnenolone incubated for 2 hrs by radioimmuno assay; assay type: cell-based; design: concentration or dose not given beside the values; conditions: filed as activator
Escherichia coli [21] = experiment: Inhibition of quorum sensing system in Escherichia coli MT102 assessed as GFP level incubated for 22 hrs at 250 uM by microplate titre analysis relative to control; assay type: functional
Pseudomonas aeruginosa = experiment: Inhibition of quorum sensing system in Pseudomonas aeruginosa MH602 assessed as GFP level incubated for 15 hrs at 250 uM by microplate titre analysis relative to control; assay type: functional
[22] = target: Replicase polyprotein 1ab (Severe acute respiratory syndrome coronavirus 2, UniProt P0DTD1); experiment: Inhibition of SARS-Cov-2 Main protease
[23] = target: GABA A receptor alpha-2/beta-2/gamma-2 (Homo sapiens) (UniProt P47870+P18507+P47869); experiment: Inhibition of alpha2beta2gamma2 GABAA receptor (unknown origin) relative to control; assay type: protein-complex assay
[24] = target: GABA-A receptor; alpha-5/beta-3/gamma-2 (Homo sapiens) (UniProt P18507+P28472+P31644); experiment: Inhibition of alpha5beta3gamma2 GABAA receptor (unknown origin) relative to control; assay type: protein-complex assay
[25] = target: GABA-A receptor; alpha-1/beta-2/gamma-2 (Homo sapiens) (UniProt P14867+P47870+P18507); experiment: Inhibition of alpha1beta2gamma2 GABAA receptor (unknown origin) relative to control; assay type: protein-complex assay
Translocator protein [26] = target: T2, Translocator protein (Homo sapiens, UniProt P30536); experiment: Displacement of [3H] PK11195 from TSPO in human U-87 MGcell membrane assessed as inhibition constant; assay type: cell membranes, U-87 MG
SARS-CoV-2 = experiment: Antiviral activity against SARS-CoV-2 infected in human Calu-3 cells; assay type: functional, organism-based; conditions: Severe acute respiratory syndrome coronavirus 2, Calu-3
Translocator protein [27] = target: T2, Translocator protein; experiment: Displacement of [3H] PK11195 from TSPO (unknown origin) assessed as inhibition constant
[28] = Inhibition of MERS-CoV Main protease; design: species or system Middle East respiratory syndrome-related coronavirus
[29] = Inhibition of SARS-CoV Main protease; design: species or system Severe acute respiratory syndrome-related coronavirus
Translocator protein [30] = target: Translocator protein (Rattus norvegicus, UniProt P16257); experiment: Displacement of [3H]-PK11195 from rat kidney mitochondrial membrane TSPO receptor assessed as inhibition constant; assay type: cell membranes
Chain of Translocator protein (Rattus norvegicus, UniProt P16257) (P16257 whole entry, looked up): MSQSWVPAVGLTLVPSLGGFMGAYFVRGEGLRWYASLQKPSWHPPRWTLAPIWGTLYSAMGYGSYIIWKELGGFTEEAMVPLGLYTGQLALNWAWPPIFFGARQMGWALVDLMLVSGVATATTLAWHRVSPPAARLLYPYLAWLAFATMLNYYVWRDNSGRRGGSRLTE

Chain of Translocator protein (Rattus norvegicus) (P16257 whole entry, looked up): as above
T2 sequence (P30536 whole entry): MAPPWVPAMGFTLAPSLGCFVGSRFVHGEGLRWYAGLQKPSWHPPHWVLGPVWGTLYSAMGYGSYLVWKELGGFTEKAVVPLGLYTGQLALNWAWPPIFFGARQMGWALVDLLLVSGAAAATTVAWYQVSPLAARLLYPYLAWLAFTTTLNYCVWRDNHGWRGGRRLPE
Chain of Cathepsin K (P43235 whole entry): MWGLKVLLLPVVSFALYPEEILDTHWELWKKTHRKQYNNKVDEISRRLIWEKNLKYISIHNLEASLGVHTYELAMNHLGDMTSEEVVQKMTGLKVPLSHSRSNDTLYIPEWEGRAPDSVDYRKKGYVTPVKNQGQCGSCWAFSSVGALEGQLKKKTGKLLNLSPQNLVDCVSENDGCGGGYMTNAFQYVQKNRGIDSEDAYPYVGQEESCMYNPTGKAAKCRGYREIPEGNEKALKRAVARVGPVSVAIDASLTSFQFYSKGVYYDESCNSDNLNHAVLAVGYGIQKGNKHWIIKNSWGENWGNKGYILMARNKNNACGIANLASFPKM
Chain of Group IIE secretory phospholipase A2 (Mus musculus, UniProt Q9QUL3) (Q9QUL3 whole entry): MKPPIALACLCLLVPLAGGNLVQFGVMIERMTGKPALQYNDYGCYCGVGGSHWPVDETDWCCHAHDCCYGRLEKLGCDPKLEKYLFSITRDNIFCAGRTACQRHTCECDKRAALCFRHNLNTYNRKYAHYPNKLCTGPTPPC
Chain of Phospholipase A2, membrane associated (Mus musculus, UniProt P31482) (P31482 whole entry): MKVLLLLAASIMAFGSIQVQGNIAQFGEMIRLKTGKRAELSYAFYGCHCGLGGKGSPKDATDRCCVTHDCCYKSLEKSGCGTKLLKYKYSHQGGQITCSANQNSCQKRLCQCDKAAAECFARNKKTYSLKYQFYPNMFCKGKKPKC
Chain of Calpain-1 catalytic subunit (P07384 whole entry): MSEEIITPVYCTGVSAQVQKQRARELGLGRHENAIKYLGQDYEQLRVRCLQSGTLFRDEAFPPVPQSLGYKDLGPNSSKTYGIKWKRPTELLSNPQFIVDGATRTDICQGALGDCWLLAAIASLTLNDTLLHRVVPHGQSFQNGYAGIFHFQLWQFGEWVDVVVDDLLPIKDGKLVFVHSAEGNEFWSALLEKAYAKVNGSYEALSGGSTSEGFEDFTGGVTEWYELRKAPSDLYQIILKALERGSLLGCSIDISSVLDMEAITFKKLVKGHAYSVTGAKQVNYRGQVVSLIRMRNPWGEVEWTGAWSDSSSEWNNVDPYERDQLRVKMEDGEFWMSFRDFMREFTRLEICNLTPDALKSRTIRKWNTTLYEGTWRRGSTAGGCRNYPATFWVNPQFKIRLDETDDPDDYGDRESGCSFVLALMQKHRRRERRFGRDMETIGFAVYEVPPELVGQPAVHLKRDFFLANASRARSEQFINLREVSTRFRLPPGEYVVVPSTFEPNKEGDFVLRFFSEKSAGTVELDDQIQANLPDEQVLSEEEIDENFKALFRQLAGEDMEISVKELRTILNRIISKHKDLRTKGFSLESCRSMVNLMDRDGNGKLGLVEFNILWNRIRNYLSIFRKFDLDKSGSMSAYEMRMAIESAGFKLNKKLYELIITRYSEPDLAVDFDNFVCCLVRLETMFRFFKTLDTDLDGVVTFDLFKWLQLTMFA
Chain of Phospholipase A2 group V (Mus musculus, UniProt P97391) (P97391 whole entry): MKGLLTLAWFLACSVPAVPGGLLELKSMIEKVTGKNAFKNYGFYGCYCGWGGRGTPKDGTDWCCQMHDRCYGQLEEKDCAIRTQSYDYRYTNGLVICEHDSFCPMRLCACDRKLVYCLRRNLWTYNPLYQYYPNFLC
Chain of Phospholipase A2 (Mus musculus, UniProt Q9Z0Y2) (Q9Z0Y2 whole entry): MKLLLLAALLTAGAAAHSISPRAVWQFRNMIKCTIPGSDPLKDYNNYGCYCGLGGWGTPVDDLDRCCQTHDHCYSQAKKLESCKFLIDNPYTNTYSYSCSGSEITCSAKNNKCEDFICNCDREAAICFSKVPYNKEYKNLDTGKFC
Chain of Dipeptidyl peptidase 1 (Homo sapiens) (P53634 25-134 limits assumed): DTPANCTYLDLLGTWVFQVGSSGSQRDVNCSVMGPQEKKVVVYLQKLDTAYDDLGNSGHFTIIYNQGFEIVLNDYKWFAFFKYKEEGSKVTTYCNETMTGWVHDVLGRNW
Chain of Dipeptidyl peptidase 1 (Homo sapiens) (P53634 231-394 limits assumed): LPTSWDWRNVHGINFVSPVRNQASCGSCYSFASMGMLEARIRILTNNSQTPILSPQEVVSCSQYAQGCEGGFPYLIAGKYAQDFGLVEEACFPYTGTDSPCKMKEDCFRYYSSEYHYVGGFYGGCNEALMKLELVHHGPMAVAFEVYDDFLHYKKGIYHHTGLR
Chain of Dipeptidyl peptidase 1 (Homo sapiens) (P53634 395-463 limits assumed): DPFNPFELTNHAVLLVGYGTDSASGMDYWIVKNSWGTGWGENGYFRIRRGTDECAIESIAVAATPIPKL
Chain of Phospholipase A2 (Homo sapiens, UniProt P04054) (P04054 whole entry): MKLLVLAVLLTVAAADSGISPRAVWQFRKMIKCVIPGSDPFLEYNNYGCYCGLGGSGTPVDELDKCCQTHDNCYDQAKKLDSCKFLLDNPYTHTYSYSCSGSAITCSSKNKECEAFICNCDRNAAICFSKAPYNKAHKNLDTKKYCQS
Chain of Group IIE secretory phospholipase A2 (Homo sapiens, UniProt Q9NZK7) (Q9NZK7 whole entry): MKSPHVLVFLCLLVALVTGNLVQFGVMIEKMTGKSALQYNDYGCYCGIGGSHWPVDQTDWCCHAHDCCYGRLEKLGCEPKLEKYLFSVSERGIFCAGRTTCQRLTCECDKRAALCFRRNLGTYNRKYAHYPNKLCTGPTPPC
Chain of Phospholipase A2 group V (Homo sapiens, UniProt P39877) (P39877 whole entry): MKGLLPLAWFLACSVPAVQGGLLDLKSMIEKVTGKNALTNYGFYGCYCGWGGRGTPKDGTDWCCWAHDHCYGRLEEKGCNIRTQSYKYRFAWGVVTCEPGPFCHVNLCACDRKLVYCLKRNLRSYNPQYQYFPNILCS
Chain of Group 10 secretory phospholipase A2 (Homo sapiens, UniProt O15496) (O15496 whole entry): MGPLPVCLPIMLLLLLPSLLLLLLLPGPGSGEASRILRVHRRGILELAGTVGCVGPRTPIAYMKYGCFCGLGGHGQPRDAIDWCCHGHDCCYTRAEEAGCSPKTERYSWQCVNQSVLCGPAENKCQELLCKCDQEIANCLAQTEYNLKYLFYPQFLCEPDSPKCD
Chain of Group IIC secretory phospholipase A2 (P48076 whole entry): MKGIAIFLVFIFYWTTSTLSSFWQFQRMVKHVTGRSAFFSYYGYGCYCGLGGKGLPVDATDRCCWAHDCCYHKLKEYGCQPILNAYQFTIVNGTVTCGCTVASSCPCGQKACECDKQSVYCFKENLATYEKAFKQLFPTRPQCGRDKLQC
Chain of Group 10 secretory phospholipase A2 (Mus musculus, UniProt Q9QXX3) (Q9QXX3 whole entry): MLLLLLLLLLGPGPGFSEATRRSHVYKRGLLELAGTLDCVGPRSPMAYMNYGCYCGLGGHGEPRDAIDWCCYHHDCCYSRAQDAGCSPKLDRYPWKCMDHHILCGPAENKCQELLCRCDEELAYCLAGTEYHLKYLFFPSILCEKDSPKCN
Chain of Cathepsin S (P25774 whole entry): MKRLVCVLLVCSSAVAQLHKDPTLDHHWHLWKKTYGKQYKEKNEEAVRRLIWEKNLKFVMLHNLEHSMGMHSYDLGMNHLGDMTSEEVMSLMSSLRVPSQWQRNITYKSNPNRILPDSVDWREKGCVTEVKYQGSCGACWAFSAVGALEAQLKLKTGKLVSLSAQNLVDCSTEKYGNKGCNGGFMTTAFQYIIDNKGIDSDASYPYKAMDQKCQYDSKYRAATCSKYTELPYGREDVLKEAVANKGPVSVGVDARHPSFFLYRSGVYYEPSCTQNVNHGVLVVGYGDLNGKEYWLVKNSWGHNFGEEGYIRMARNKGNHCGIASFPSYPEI
Chain of Procathepsin L (P07711 whole entry): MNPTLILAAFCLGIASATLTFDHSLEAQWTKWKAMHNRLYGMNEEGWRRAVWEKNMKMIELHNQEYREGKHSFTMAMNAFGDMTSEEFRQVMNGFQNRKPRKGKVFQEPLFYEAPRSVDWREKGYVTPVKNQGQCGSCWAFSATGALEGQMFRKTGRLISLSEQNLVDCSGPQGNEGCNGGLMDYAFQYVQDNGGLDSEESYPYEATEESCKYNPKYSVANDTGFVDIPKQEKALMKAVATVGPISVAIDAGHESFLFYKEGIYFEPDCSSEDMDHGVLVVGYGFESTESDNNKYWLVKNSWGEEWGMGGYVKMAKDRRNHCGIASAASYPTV

CCc1c(C(=O)C(=O)NC)c2c(OCC(=O)O)cccn2c1Cc1ccccc1
IC50 [1]: > 50 µM

C[N+](C)(C)CCCNC(=O)C(=O)c1cc(Br)ccc1NC(=O)c1ccc2ccccc2c1.[Cl-]
MIC (Staphylococcus aureus [2]): 16 mg/L

CCc1c(C(=O)C(N)=O)c2c(OCC(O)CC)cccn2c1Cc1cccc(Cl)c1 (stereo not given)
IC50 [1]: 19 µM

CCN(CC)c1ccc(/C=C/c2ccccc2C(=O)NC(Cc2ccccc2)C(=O)C(N)=O)cc1 (stereo not given)
Ki (Cathepsin B): 0.028 µM
Ki (Cathepsin K): 0.0018 µM
Ki [3]: 0.056 µM
Ki (Procathepsin L): 0.137 µM
Ki (Cathepsin S): 3.29 µM
inhibition [4]: 94%
inhibition (Homo sapiens): 84%

Cc1c(C(=O)C(N)=O)c2c(OCC(=O)O)cccn2c1Cc1ccccc1-c1ccccc1
IC50 [5]: 0.1 µM
IC50 [6]: 0.01 µM
IC50 [7]: 0.0014 µM
IC50 [8]: 0.01 µM
IC50 [9]: 0.01 µM
IC50 (Phospholipase A2 group V [10]): 0.01 µM
IC50 (Phospholipase A2 group V [11]): 0.01 µM
IC50 [12]: 0.1 µM
IC50 (Phospholipase A2 [13]): 0.1 µM
IC50 [14]: 0.01 µM
IC50 [15]: 0.01 µM
IC50 (Phospholipase A2 [16]): 0.1 µM

O=C(Nc1ccc(F)cc1)C(=O)c1ccc2c(c1)c1ccccc1n2Cc1ccc(Cl)cc1
MIC (Bacillus cereus): 16 mg/L
MIC (Pseudomonas putida): 16 mg/L
MIC (Escherichia coli [17]): 8 mg/L
MIC (Staphylococcus aureus [18]): > 8 mg/L

CCCCCCCCCS(=O)(=O)Nc1ccc(Br)cc1C(=O)C(=O)NCCCNC(=N)N
MIC (Staphylococcus aureus [19]): 12 µM (≈ 6.39 µg/mL)

CCC(C)N(C)C(=O)c1cc2ccccc2c(-c2ccccc2Cl)n1 (stereo not given)
Activity [20]: 48%

CCOC(=O)CNC(=O)C(=O)c1ccccc1Nc1ccc([N+](=O)[O-])cc1[N+](=O)[O-]
inhibition (Escherichia coli [21]): 73.6%
inhibition (Pseudomonas aeruginosa): 48.7%

CC(C)(C)OC(=O)Nc1cccn([C@@H](CC2CCCCC2)C(=O)N[C@@H](C[C@@H]2CCNC2=O)C(=O)C(=O)NCc2ccccc2)c1=O
IC50 [22]: 2.39 µM

CCc1c(CC(N)=O)c2c(OCC(=O)O)cccn2c1Cc1cccc2ccccc12
IC50 [7]: 0.005 µM
IC50 [1]: 0.03 µM

O=C(NCc1ccccc1)C(=O)c1c[nH]c2ccc([N+](=O)[O-])cc12
inhibition [23]: 32%
inhibition [24]: 44%
inhibition [25]: 65%

CCOC(=O)[C@@H](Cc1ccccc1)NC(=O)[C@H](CC(C)C)NC(=O)C(=O)c1c(-c2ccccc2)[nH]c2ccc(N=C=S)cc12
Ki (Translocator protein [26]): 0.108 µM

C[N+](C)(C)CCCNC(=O)C(=O)c1cc(Br)ccc1NC(=O)c1ccc2ccccc2c1.[I-]
MIC (Staphylococcus aureus [2]): 39 mg/L

Nc1cccn([C@@H](CC2CC2)C(=O)N[C@@H](C[C@@H]2CCNC2=O)C(=O)C(=O)NCc2ccccc2)c1=O
EC50 (SARS-CoV-2): 4 µM

CC(C)C[C@H](NC(=O)C(=O)c1c(-c2ccccc2)[nH]c2ccccc12)C(=O)N[C@H](Cc1ccccc1)C(=O)O
Ki (Translocator protein [27]): 0.202 µM

CC(C)(C)OC(=O)Nc1cccn([C@@H](CC2CC2)C(=O)N[C@@H](C[C@@H]2CCNC2=O)C(=O)C(=O)NCc2ccccc2)c1=O
IC50 [28]: 0.58 µM
IC50 [29]: 0.9 µM

CCCCCCN(CCCCCC)C(=O)C(=O)c1c(-c2ccc(Cl)cc2)[nH]c2ccc(Cl)cc12
Activity [20]: 166%

CCCCN(CCCC)C(=O)C(=O)c1c(-c2ccc(Cl)cc2)[nH]c2ccc(Cl)cc12
Activity [20]: 147%

CCCN(CCC)C(=O)C(=O)c1c(-c2ccccc2)[nH]c2ccc(C)cc12
Ki (Translocator protein [30]): 0.0055 µM
Activity [20]: 148%

CN1C(=O)CN=C(c2ccc(Cl)cc2)c2cc(Cl)ccc21
Activity [20]: 41%

Cc1c(C(=O)C(N)=O)c2c(OCn3cnnn3)cccn2c1Cc1ccccc1-c1ccccc1
IC50 [7]: 0.007 µM
IC50 [1]: 0.007 µM

CCOC(=O)[C@@H](Cc1ccccc1)NC(=O)[C@H](CC(C)C)NC(=O)C(=O)c1c(-c2ccccc2)[nH]c2ccccc12
Ki (Translocator protein [27]): 0.438 µM
